In patent US7851469B2, “Isoxazole-imidazole derivatives” (Hoffmann-La Roche Inc., priority 2007, dated 2010):

The molecules below were run against T1, GABA A receptor α5β3γ2 (hα5) (Homo sapiens, UniProt P18507+P31644) (assay: [3H]flumazenil competition binding assay, human GABA A α5 receptor). Conditions: displacement of [3H]flumazenil (0.5 nM) from HEK293 cell membranes expressing α5β3γ2; means of two determinations.
T1 construct: expressed in transfected cells; host or cells: HEK293 (transiently transfected; membranes)
Procedure: Membrane Preparation and Binding Assay
The affinity of compounds at GABA A receptor subtypes was measured by competition for [3H]flumazenil (85 Ci/mmol; Roche) binding to HEK293 cells expressing rat (stably transfected) or human (transiently transfected) receptors of composition α1β3γ2, α2β3γ2, α3β3γ2 and α5β3γ2.
Cell pellets were suspended in Krebs-tris buffer (4.8 mM KCl, 1.2 mM CaCl2, 1.2 mM MgCl2, 120 mM NaCl, 15 mM Tris; pH 7.5; binding assay buffer), homogenized by polytron for ca. 20 sec on ice and centrifuged for 60 min at 4° C. (50000 g; Sorvall, rotor: SM24=20000 rpm). The cell pellets were resuspended in Krebs-tris buffer and homogenized by polytron for ca. 15 sec on ice. Protein was measured (Bradford method, Bio-Rad) and aliquots of 1 mL were prepared and stored at −80° C.
Radioligand binding assays were carried out in a volume of […] (96-well plates) which contained […] of cell membranes, [3H]flumazenil at a concentration of 1 nM for α1, α2, α3 subunits and 0.5 nM for α5 subunits and the test compound in the range of […]. Nonspecific binding was defined by 10^−5 M diazepam and typically represented less than 5% of the total binding. Assays were incubated to equilibrium for 1 hour at 4° C. and harvested onto GF/C uni-filters (Packard) by filtration using a Packard harvester and washing with ice-cold wash buffer (50 mM Tris; pH 7.5). After drying, filter-retained radioactivity was detected by liquid scintillation counting. Ki values were calculated using Excel-Fit (Microsoft) and are the means of two determinations.

SMILES	Ki
FC(F)(F)c1onc(-c2ccccc2)c1-c1cn(-c2ccccc2)cn1 [Example 1, 3-Phenyl-4-(1-phenyl-1H-imidazol-4-yl)-5-trifluoromethyl-isoxazole]	53.2 nM
CC(=O)c1ccc(-n2cnc(-c3c(-c4ccccc4)noc3C(F)(F)F)c2)cc1 [Example 3, 1-{4-[4-(3-Phenyl-5-trifluoromethyl-isoxazol-4-yl)-imidazol-1-yl]-phenyl}-ethanone]	12.5 nM
FC(F)(F)c1ccc(-n2cnc(-c3c(-c4ccccc4)noc3C(F)(F)F)c2)cc1 [Example 4, 3-Phenyl-5-trifluoromethyl-4-[1-(4-trifluoromethyl-phenyl)-1H-imidazol-4-yl]-isoxazole]	39.7 nM
N#Cc1ccc(-n2cnc(-c3c(-c4ccccc4)noc3C(F)(F)F)c2)cc1 [Example 5, 4-[4-(3-Phenyl-5-trifluoromethyl-isoxazol-4-yl)-imidazol-1-yl]-benzonitrile]	41.2 nM
O=[N+]([O-])c1ccc(-n2cnc(-c3c(-c4ccccc4)noc3C(F)(F)F)c2)cc1 [Example 7, 4-[1-(4-Nitro-phenyl)-1H-imidazol-4-yl]-3-phenyl-5-trifluoromethyl-isoxazole]	19.7 nM
Cc1ccc(-n2cnc(-c3c(-c4ccccc4)noc3C(F)(F)F)c2)cc1 [Example 8, 3-Phenyl-4-(1-p-tolyl-1H-imidazol-4-yl)-5-trifluoromethyl-isoxazole]	84.2 nM
COc1ccc(-n2cnc(-c3c(-c4ccccc4)noc3C(F)(F)F)c2)cc1 [Example 9, 4-[1-(4-Methoxy-phenyl)-1H-imidazol-4-yl]-3-phenyl-5-trifluoromethyl-isoxazole]	46.1 nM
O=C(NCC1CC1)c1ccc(-n2cnc(-c3c(-c4ccccc4)noc3C(F)(F)F)c2)cc1 [Example 10, N-Cyclopropylmethyl-4-[4-(3-phenyl-5-trifluoromethyl-isoxazol-4-yl)-imidazol-1-yl]-benzamide]	23.6 nM
O=C(NCC(F)(F)F)c1ccc(-n2cnc(-c3c(-c4ccccc4)noc3C(F)(F)F)c2)cc1 [Example 11, 4-[4-(3-Phenyl-5-trifluoromethyl-isoxazol-4-yl)-imidazol-1-yl]-N-(2,2,2-trifluoro-ethyl)-benzamide]	17.6 nM
O=C(NC1CC1)c1ccc(-n2cnc(-c3c(-c4ccccc4)noc3C(F)(F)F)c2)cc1 [Example 12, N-Cyclopropyl-4-[4-(3-phenyl-5-trifluoromethyl-isoxazol-4-yl)-imidazol-1-yl]-benzamide]	11.7 nM
O=C(NC1CCOCC1)c1ccc(-n2cnc(-c3c(-c4ccccc4)noc3C(F)(F)F)c2)cc1 [Example 13, 4-[4-(3-Phenyl-5-trifluoromethyl-isoxazol-4-yl)-imidazol-1-yl]-N-(tetrahydro-pyran-4-yl)-benzamide]	41.2 nM
COC(=O)c1ccc(-n2cnc(-c3c(-c4ccccc4)noc3C(F)(F)F)c2)nc1 [Example 17, 6-[4-(3-Phenyl-5-trifluoromethyl-isoxazol-4-yl)-imidazol-1-yl]-nicotinic acid methyl ester]	31.5 nM
O=C(c1ccc(-n2cnc(-c3c(-c4ccccc4)noc3C(F)(F)F)c2)nc1)N1CCSCC1 [Example 23, {6-[4-(3-Phenyl-5-trifluoromethyl-isoxazol-4-yl)-imidazol-1-yl]-pyridin-3-yl}-thiomorpholin-4-yl-methanone]	91.1 nM
COC(=O)c1ccc(-n2cnc(-c3c(-c4ccc(F)cc4)noc3C(F)(F)F)c2)cc1 [Example 27, 4-{4-[3-(4-Fluoro-phenyl)-5-trifluoromethyl-isoxazol-4-yl]-imidazol-1-yl}-benzoic acid methyl ester]	22.1 nM
O=C(O)c1ccc(-n2cnc(-c3c(-c4ccc(F)cc4)noc3C(F)(F)F)c2)cc1 [Example 28, 4-{4-[3-(4-Fluoro-phenyl)-5-trifluoromethyl-isoxazol-4-yl]-imidazol-1-yl}-benzoic acid]	76.7 nM
CC(C)(O)c1ccc(-n2cnc(-c3c(-c4ccc(F)cc4)noc3C(F)(F)F)c2)cc1 [Example 29, 2-(4-{4-[3-(4-Fluoro-phenyl)-5-trifluoromethyl-isoxazol-4-yl]-imidazol-1-yl}-phenyl)-propan-2-ol]	28.4 nM
NC(=O)c1ccc(-n2cnc(-c3c(-c4ccc(F)cc4)noc3C(F)(F)F)c2)cc1 [Example 31, 4-{4-[3-(4-Fluoro-phenyl)-5-trifluoromethyl-isoxazol-4-yl]-imidazol-1-yl}-benzamide]	17.1 nM
O=C(c1ccc(-n2cnc(-c3c(-c4ccc(F)cc4)noc3C(F)(F)F)c2)cc1)N1CCS(=O)(=O)CC1 [Example 35, (1,1-Dioxo-1λ6-thiomorpholin-4-yl)-(4-{4-[3-(4-fluoro-phenyl)-5-trifluoromethyl-isoxazol-4-yl]-imidazol-1-yl}-phenyl)-methanone]	87.4 nM
CC(=O)c1ccc(-n2cnc(-c3c(-c4ccc(F)cc4)noc3C(F)(F)F)c2)nc1 [Example 36, 1-(6-{4-[3-(4-Fluoro-phenyl)-5-trifluoromethyl-isoxazol-4-yl]-imidazol-1-yl}-pyridin-3-yl)-ethanone]	17.2 nM
N#Cc1ccc(-n2cnc(-c3c(-c4ccc(F)cc4)noc3C(F)(F)F)c2)nc1 [Example 37, 6-{4-[3-(4-Fluoro-phenyl)-5-trifluoromethyl-isoxazol-4-yl]-imidazol-1-yl}-nicotinonitrile]	32.3 nM
O=C(NCC(F)(F)F)c1ccc(-n2cnc(-c3c(-c4ccc(F)cc4)noc3C(F)(F)F)c2)nc1 [Example 39, 6-{4-[3-(4-Fluoro-phenyl)-5-trifluoromethyl-isoxazol-4-yl]-imidazol-1-yl}-N-(2,2,2-trifluoro-ethyl)-nicotinamide]	4.9 nM
O=C(NC1CC1)c1ccc(-n2cnc(-c3c(-c4ccc(F)cc4)noc3C(F)(F)F)c2)nc1 [Example 40, N-Cyclopropyl-6-{4-[3-(4-fluoro-phenyl)-5-trifluoromethyl-isoxazol-4-yl]-imidazol-1-yl}-nicotinamide]	4.1 nM
CC(C)(O)c1ccc(-n2cnc(-c3c(-c4ccc(F)cc4)noc3C(F)(F)F)c2)nc1 [Example 43, 2-(6-{4-[3-(4-Fluoro-phenyl)-5-trifluoromethyl-isoxazol-4-yl]-imidazol-1-yl}-pyridin-3-yl)-propan-2-ol]	38.2 nM
O=[N+]([O-])c1ccc(-n2cnc(-c3c(-c4ccc(Cl)cc4)noc3C(F)(F)F)c2)cc1 [Example 47, 3-(4-Chloro-phenyl)-4-[1-(4-nitro-phenyl)-1H-imidazol-4-yl]-5-trifluoromethyl-isoxazole]	58.6 nM
O=C(NC1CCOCC1)c1ccc(-n2cnc(-c3c(-c4ccc(Cl)cc4)noc3C(F)(F)F)c2)nc1 [Example 51, 6-{4-[3-(4-Chloro-phenyl)-5-trifluoromethyl-isoxazol-4-yl]-imidazol-1-yl}-N-(tetrahydro-pyran-4-yl)-nicotinamide]	8.5 nM
FC(F)(F)c1onc(-c2ccccc2)c1-c1cn(-c2ncccn2)cn1 [Example 54, 2-[4-(3-Phenyl-5-trifluoromethyl-isoxazol-4-yl)-imidazol-1-yl]-pyrimidine]	73 nM
O=C(NC1CC1)c1cnc(-n2cnc(-c3c(-c4ccccc4)noc3C(F)(F)F)c2)cn1 [Example 55, 5-[4-(3-Phenyl-5-trifluoromethyl-isoxazol-4-yl)-imidazol-1-yl]-pyrazine-2-carboxylic acid cyclopropylamide]	14.1 nM
